From patent US12310975B2, “Modulators of BCL6 proteolysis and associated methods of use” (Arvinas Operations, Inc., priority 2019, dated 2025) come the findings set out here.

Experiment [1] has as its target T1, BCL6 (Homo sapiens (Human), UniProt P41182). As to the kind of experiment: Immunofluorescence high content imaging of BCL6 degradation in T47D cells. The experiment is classed as cell-based. As to conditions: for Dmax: T47D; for DC50: class symbols A-D, read-out: EC50 (nM)*. Summed up: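 BCL6 loss was quantified by high-content imaging (10×, 4 fields/well) after PFA fixation and anti-BCL6/Alexa-488 staining with Hoechst nuclear and CellMask counterstains. Compounds were applied for 3 days to T47D breast cancer cells in RPMI-10% FBS, 11 points, 3-fold steps, top 0.1 or 1 μM.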

For experiment [2], the target named is T1, BCL6. The experiment is described as follows: BCL6 TR-FRET assay (BCL6-Avitag-Biotin / BCoR-Cy5 peptide). It counts as binding. Summed up: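 After 30 min room-temperature preincubation of compound titrations with 2 nM biotinylated BCL6-Avitag, 100 nM Cy5-labelled BCoR peptide plus 2 nM Eu-streptavidin were added and TR-FRET read 2 h later. HEPES pH 7.5/125 mM NaCl buffer with Triton X, glutathione (or DTT) and BSA.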
In general terms: TR-FRET usually uses a lanthanide donor and a delayed reading to cut background.

The mark [3] stands for this setting: class symbols A-D, read-out: IC50 (nM)***.

The structures appear in SMILES notation.

Usually Dmax stands for the greatest extent of degradation seen. As a reminder, the IC50 is the concentration that gives 50% inhibition. With `CNC(=O)COc1cc2cc(Nc3nc(N4CC5(CCN(CC6CCN(c7cccc8c7C(=O)N(C7CCC(=O)NC7=O)C8=O)CC6)C5)C4)ncc3Cl)ccc2n(C(C)C)c1=O` (stereo not shown) [compound 511, 2-{[6-({5-chloro-2-[6-({1-[2-(2,6-dioxopiperidin-3-yl)-1,3-dioxo-2,3-dihydro-1H-isoindol-4-yl]piperidin-4-yl}methyl)-2,6-diazaspiro[3.4]octan-2-yl]pyrimidin-4-yl}amino)-2-oxo-1-(propan-2-yl)-1,2-dihydroquinolin-3-yl]oxy}-N-methylacetamide], in experiment [1], the Dmax was no less than 70%. In addition, the IC50 in experiment [2] (read-out: IC50) is less than 10 nM.
In experiment [1], `CNC(=O)COc1cc2cc(Nc3nc(N4CCN(CC5CCN(c6cccc7c6C(=O)N(C6CCC(=O)NC6=O)C7=O)CC5)CC4)ncc3Cl)ccc2n(CCOC)c1=O` (stereo not shown) [compound 454, 2-{[6-({5-chloro-2-[4-({1-[2-(2,6-dioxopiperidin-3-yl)-1,3-dioxo-2,3-dihydro-1H-isoindol-4-yl]piperidin-4-yl}methyl)piperazin-1-yl]pyrimidin-4-yl}amino)-1-(2-methoxyethyl)-2-oxo-1,2-dihydroquinolin-3-yl]oxy}-N-methylacetamide] came in with a Dmax of no less than 70%. Besides, the IC50 in experiment [2] (read-out: IC50) is less than 10 nM.
In experiment [1] (maximum, class symbols A-C), `CC(=O)COc1cc2cc(Nc3nc(N4CCC(OC5CCN(c6ccc7c(c6)C(=O)N(C6CCC(=O)NC6=O)C7=O)CC5)CC4)ncc3Cl)ccc2n(C)c1=O` (stereo not shown) [compound 170, 5-(4-((1-(5-chloro-4-((1-methyl-2-oxo-3-(2-oxopropoxy)-1,2-dihydroquinolin-6-yl)amino)pyrimidin-2-yl)piperidin-4-yl)oxy)piperidin-1-yl)-2-(2,6-dioxopiperidin-3-yl)isoindoline-1,3-dione] gave a Dmax of less than 50%. Further, the DC50 in experiment [1] fell in the range of 50 to 100 nM. In addition, in experiment [2] (setting [3]), the IC50 fell in the range of 10 to 50 nM.
In general, EC50 refers to the concentration that produces a half-maximal response. A low value points to higher potency in that assay. For `CNC(=O)COc1cc2cc(Nc3nc(N4CCN(CC5CCN(c6ccc(C(=O)NC7CCC(=O)NC7=O)cc6)CC5)CC4)ncc3Cl)ccc2n(C)c1=O` (stereo not shown) [compound 276, 4-[4-({4-[5-chloro-4-({1-methyl-3-[(methylcarbamoyl)methoxy]-2-oxo-1,2-dihydroquinolin-6-yl}amino)pyrimidin-2-yl]piperazin-1-yl}methyl)piperidin-1-yl]-N-(2,6-dioxopiperidin-3-yl)benzamide], in experiment [1], the half-inhibitory concentration (IC50) is no less than 100 nM and the greatest degradation seen (Dmax) is less than 50%. The EC50 in experiment [2] was less than 10 nM.
In experiment [1], `CNC(=O)COc1cc2cc(Nc3nc(N4CCN(CC5CCN(c6cnc(C(=O)NC7CCC(=O)NC7=O)nc6)CC5)CC4)ncc3Cl)ccc2n(C)c1=O` (stereo not shown) [compound 273, 5-[4-({4-[5-chloro-4-({1-methyl-3-[(methylcarbamoyl)methoxy]-2-oxo-1,2-dihydroquinolin-6-yl}amino)pyrimidin-2-yl]piperazin-1-yl}methyl)piperidin-1-yl]-N-(2,6-dioxopiperidin-3-yl)pyrimidine-2-carboxamide] had an IC50 of 50 to 100 nM and a Dmax of less than 50%. The same molecule gave an EC50 in experiment [2] of 10 to 50 nM.
On to `Cn1c(=O)n(CCC(C)(C)O)c2cc(Nc3nc(N4CCC(CN5CCN(c6ccc7c(c6)C(=O)N(C6CCC(=O)NC6=O)C7=O)CC5)CC4)ncc3Cl)ccc21` (stereo not shown) [compound 149, 5-(4-((1-(5-chloro-4-((3-(3-hydroxy-3-methylbutyl)-1-methyl-2-oxo-2,3-dihydro-1H-benzo[d]imidazol-5-yl)amino)pyrimidin-2-yl)piperidin-4-yl)methyl)piperazin-1-yl)-2-(2,6-dioxopiperidin-3-yl)isoindoline-1,3-dione], for which the DC50 in experiment [1] is greater than 100 nM. In addition, the IC50 in experiment [2] (setting [3]) is no less than 100 nM.
For `CNC(=O)CCc1cc2cc(Nc3nc(N4CCC(CN5CCN(c6ccc7c(c6)C(=O)N(C6CCC(=O)NC6=O)C7=O)CC5)CC4)ncc3Cl)ccc2n(C)c1=O` (stereo not shown) [compound 155, 3-(6-((5-chloro-2-(4-((4-(2-(2,6-dioxopiperidin-3-yl)-1,3-dioxoisoindolin-5-yl)piperazin-1-yl)methyl)piperidin-1-yl)pyrimidin-4-yl)amino)-1-methyl-2-oxo-1,2-dihydroquinolin-3-yl)-N-methylpropanamide], the DC50 in experiment [1] was greater than 100 nM. The IC50 in experiment [2] (setting [3]) is no less than 100 nM.
With `CNC(=O)COc1cc2cc(Nc3nc(N4CCN(CC5CN(C6CCN(c7cccc8c7C(=O)N(C7CCC(=O)NC7=O)C8=O)CC6)C5)CC4)ncc3Cl)ccc2n(C(C)C)c1=O` (stereo not shown) [compound 524, 2-({6-[(5-chloro-2-{4-[(1-{1-[2-(2,6-dioxopiperidin-3-yl)-1,3-dioxo-2,3-dihydro-1H-isoindol-4-yl]piperidin-4-yl}azetidin-3-yl)methyl]piperazin-1-yl}pyrimidin-4-yl)amino]-2-oxo-1-(propan-2-yl)-1,2-dihydroquinolin-3-yl}oxy)-N-methylacetamide], the Dmax in experiment [1] is 50 to 70%. In experiment [2] (read-out: IC50), the IC50 is less than 10 nM.
In the case of `CNC(=O)COc1cc2cc(Nc3nc(N4CCC(CN5CCC6(CCN(c7ccc8c(c7)C(=O)N(C7CCC(=O)NC7=O)C8=O)CC6)C5)CC4)ncc3Cl)ccc2n(C(C)C)c1=O` (stereo not shown) [compound 494, 2-{[6-({5-chloro-2-[4-({8-[2-(2,6-dioxopiperidin-3-yl)-1,3-dioxo-2,3-dihydro-1H-isoindol-5-yl]-2,8-diazaspiro[4.5]decan-2-yl}methyl)piperidin-1-yl]pyrimidin-4-yl}amino)-2-oxo-1-(propan-2-yl)-1,2-dihydroquinolin-3-yl]oxy}-N-methylacetamide], in experiment [1], the Dmax lay within 50 to 70%. Also, the IC50 in experiment [2] (read-out: IC50) was less than 10 nM.
In turn, `CNC(=O)COc1cc2cc(Nc3nc(N4CCN(CC5CC6(CCN(c7ccc8c(c7)C(=O)N(C7CCC(=O)NC7=O)C8=O)CC6)C5)CC4)ncc3Cl)ccc2n(C(C)C)c1=O` (stereo not shown) [compound 516, 2-{[6-({5-chloro-2-[4-({7-[2-(2,6-dioxopiperidin-3-yl)-1,3-dioxo-2,3-dihydro-1H-isoindol-5-yl]-7-azaspiro[3.5]nonan-2-yl}methyl)piperazin-1-yl]pyrimidin-4-yl}amino)-2-oxo-1-(propan-2-yl)-1,2-dihydroquinolin-3-yl]oxy}-N-methylacetamide] showed a Dmax in experiment [1] of 50 to 70%. The IC50 in experiment [2] (read-out: IC50) was less than 10 nM.
With `CNC(=O)COc1cc2cc(Nc3nc(N4CCN(CCCN5CCN(c6ccc7c(c6)C(=O)N(C6CCC(=O)NC6=O)C7=O)CC5)CC4)ncc3Cl)ccc2n(C)c1=O` (stereo not shown) [compound 230, 2-((6-((5-chloro-2-(4-(3-(4-(2-(2,6-dioxopiperidin-3-yl)-1,3-dioxoisoindolin-5-yl)piperazin-1-yl)propyl)piperazin-1-yl)pyrimidin-4-yl)amino)-1-methyl-2-oxo-1,2-dihydroquinolin-3-yl)oxy)-N-methylacetamide], in experiment [1], the IC50 lay in the range of 10 to 50 nM and the Dmax was less than 50%. For the same molecule, the EC50 in experiment [2] is less than 10 nM.
In experiment [1], `CNC(=O)COc1cc2cc(Nc3nc(N4CC5(CCC(OC6CCN(c7cccc8c7C(=O)N(C7CCC(=O)NC7=O)C8=O)CC6)CC5)C4)ncc3Cl)ccc2n(C(C)C)c1=O` (stereo not shown) [compound 445, 2-{[6-({5-chloro-2-[7-({1-[2-(2,6-dioxopiperidin-3-yl)-1,3-dioxo-2,3-dihydro-1H-isoindol-4-yl]piperidin-4-yl}oxy)-2-azaspiro[3.5]nonan-2-yl]pyrimidin-4-yl}amino)-2-oxo-1-(propan-2-yl)-1,2-dihydroquinolin-3-yl]oxy}-N-methylacetamide] showed a Dmax of no less than 70%. Further, the IC50 in experiment [2] (read-out: IC50) was less than 10 nM.
In experiment [1], `CNC(=O)COc1cc2cc(Nc3nc(N4CCC(O[C@H]5C[C@@H](COc6cccc7c6C(=O)N(C6CCC(=O)NC6=O)C7=O)N(C)C5)CC4)ncc3Cl)ccc2n(C(C)C)c1=O` (stereo partly drawn) [compound 476, 2-[(6-{[5-chloro-2-(4-{[(3S,5S)-5-({[2-(2,6-dioxopiperidin-3-yl)-1,3-dioxo-2,3-dihydro-1H-isoindol-4-yl]oxy}methyl)-1-methylpyrrolidin-3-yl]oxy}piperidin-1-yl)pyrimidin-4-yl]amino}-2-oxo-1-(propan-2-yl)-1,2-dihydroquinolin-3-yl)oxy]-N-methylacetamide] gave a maximal degradation (Dmax) of less than 50%. Also, in experiment [2] (read-out: IC50), the IC50 was 10 to 50 nM.
As for `CC(=O)COc1cc2cc(Nc3nc(N4CCN(C)C(COc5ccc6c(c5)C(=O)N(C5CCC(=O)NC5=O)C6=O)C4)ncc3Cl)ccc2n(C)c1=O` (stereo not shown) [compound 194, 5-((4-(5-chloro-4-((1-methyl-2-oxo-3-(2-oxopropoxy)-1,2-dihydroquinolin-6-yl)amino)pyrimidin-2-yl)-1-methylpiperazin-2-yl)methoxy)-2-(2,6-dioxopiperidin-3-yl)isoindoline-1,3-dione], in experiment [1], the concentration for half-maximal inhibition (IC50) is no less than 100 nM and the greatest degradation seen (Dmax) lay within 50 to 70%. The molecule further yielded an EC50 in experiment [2] of 10 to 50 nM.
Consider `CNC(=O)COc1cc2cc(Nc3nc(N4CCC(O[C@H]5C[C@H](N6CCC(c7ccc8c(c7)C(=O)N(C7CCC(=O)NC7=O)C8=O)CC6)C5)CC4)ncc3Cl)ccc2n(C)c1=O` (stereo partly shown) [compound 536, 2-({6-[(5-chloro-2-{4-[(1r,3r)-3-{4-[2-(2,6-dioxopiperidin-3-yl)-1,3-dioxo-2,3-dihydro-1H-isoindol-5-yl]piperidin-1-yl}cyclobutoxy]piperidin-1-yl}pyrimidin-4-yl)amino]-1-methyl-2-oxo-1,2-dihydroquinolin-3-yl}oxy)-N-methylacetamide], for which, in experiment [1], the Dmax was no less than 70%. Besides, in experiment [2] (read-out: IC50), the IC50 is less than 10 nM.
For `CNC(=O)COc1cc2cc(Nc3nc(N4CCC(O[C@H]5C[C@H](COc6ccc7c(c6)C(=O)N(C6CCC(=O)NC6=O)C7=O)N(C)C5)CC4)ncc3Cl)ccc2n(C(C)C)c1=O` (stereo partly drawn) [compound 458, 2-[(6-{[5-chloro-2-(4-{[(3S,5R)-5-({[2-(2,6-dioxopiperidin-3-yl)-1,3-dioxo-2,3-dihydro-1H-isoindol-5-yl]oxy}methyl)-1-methylpyrrolidin-3-yl]oxy}piperidin-1-yl)pyrimidin-4-yl]amino}-2-oxo-1-(propan-2-yl)-1,2-dihydroquinolin-3-yl)oxy]-N-methylacetamide], in that order: no less than 70% and 50 to 100 nM.
